Patent US11241440B2, “Dihydrooxadiazine compounds for treating infections and cancer” (VALORALIA I MÁS D, SL, priority 2016, dated 2022)

Columns and labels:
A. baumannii = assay: Kirby-Bauer disk diffusion susceptibility test; type: cell-based, Acinetobacter baumannii; conditions: A. baumannii; 100 μg/disc; zone of inhibition
MCF7 = assay: MTT assay; type: cell-based; conditions: Homo sapiens, 48 hours
HSV-1, strain F = conditions: compound 2 μM
[1] = system: all tumor cell lines tested; assay: MTT assay, tumor cell lines of Table VII taken together
HSV-2, strain G = conditions: compound 2 μM
[2] = system: XGF-N (PRG-NIA3 deficient in the envelope glycoprotein gG); type: cell-based, porcine pseudorabies virus (PRV)
[3] = system: equine herpes virus type 1 (EHV-1); assay: Viral titer reduction; type: cell-based; conditions: 2 μM
M. abscessus = assay: Kirby-Bauer disk diffusion susceptibility test; type: cell-based, Mycobacterium abscessus; conditions: M. abscessus; 100 μg/disc; zone of inhibition
[4] = system: XGF-G (gG-deficient PRV gIS8); type: cell-based, porcine pseudorabies virus (PRV)
M. fortuitum = assay: Kirby-Bauer disk diffusion susceptibility test; type: cell-based; conditions: M. fortuitum; 100 μg/disc; zone of inhibition
[5] = Cellular viability, CellTiter Glo (Table V, cells not stated); type: cell-based; conditions: human, relative to DMSO control
Experimental: All assays for assessing anti-HIV activity were taken in parallel to determine cellular viability of the culture in the presence or absence of different concentrations of the isolated molecule. It was followed exactly the same methodology as in the anti-HIV assay except with the addition of complete DMEM medium instead of supernatant viral, in the same proportion, and the detection of the viability was performed with the viability detection kit CellTiter Glo (Promega), following manufacturer instructions. Viability is directly proportional to the luciferase activity obtained. All data are expressed as percentage relative to a control with DMSO at the same concentration. Antiviral activity and toxicity curves were performed to the compound at different concentrations.

B. cereus = assay: Kirby-Bauer disk diffusion susceptibility test; type: cell-based, Bacillus cereus; conditions: B. cereus
NCI-H1299 = assay: MTT assay; type: cell-based; conditions: Homo sapiens, 48 hours
M. chelonae = assay: Kirby-Bauer disk diffusion susceptibility test; type: cell-based; conditions: M. chelonae; 100 μg/disc; zone of inhibition
PC3 = assay: MTT assay; type: cell-based; conditions: Homo sapiens, PC-3, 48 hours

## CCCCCC1=NN(C(=O)CCO)OC(CCCCC)C1 (centres unmarked) [Compound, 1-(4,6-dipentyl-5,6-dihydro-2H-1,2,3-oxadiazin-2-yl)-3-hydroxypropan-1-one]
A. baumannii
  Activity (mm), 100 μg/disc: 10-12 mm
MCF7
  IC50: 127 nM
HSV-1, strain F
  reduction of the titer: 1.5 logarithms
[1]; all tumor cell lines tested
  antitumoral activity: exhibited activity in all tumor cell lines tested
[1]; rest of the cell lines (other than CAL33 and T98G)
  concentration at which inhibition began to be relevant: 100 nM
HSV-2, strain G
  reduction of the titer: 3 logarithms
[2]
  reduction of the titer: 1 logarithm
[3]
  reduction of the titer: 1 logarithm
M. abscessus
  Activity (mm), 100 μg/disc: 56 mm
[4]
  reduction of the titer: 0.7 logarithms
M. fortuitum
  Activity (mm), 100 μg/disc: 44 mm
[5]; 0.19 μM
  viability at 0.19 µM: 114%
[5]; 0.39 μM
  viability at 0.39 µM: 113%
[5]; 0.78 μM
  viability at 0.78 µM: 109%
[5]; 1.56 μM
  viability at 1.56 µM: 96%
[5]; 3.12 μM
  viability at 3.12 µM: 78%
[5]; 6.25 μM
  viability at 6.25 µM: 31%
[5]; 12.5 μM
  viability at 12.5 µM: 7%
[5]; 25 μM
  viability at 25 µM: 4%
[5]; 50 μM
  viability at 50 µM: 2%
[5]; 100 μM
  viability at 100 µM: 0%
B. cereus
  kind of antibiotic activity: bacteriostatic
B. cereus; 100 μg/disc, zone of inhibition
  Activity (mm), 100 μg/disc: 37-40 mm
NCI-H1299
  IC50: 192 nM
M. chelonae
  Activity (mm), 100 μg/disc: 63 mm
PC3
  IC50: 217 nM
